Source: article PMC12654037, “Norditerpene Natural Products from Subterranean Fungi with Anti-Parasitic Activity” (Microorganisms, 2025)
Like-named read-outs stand apart in the source and are kept apart here.

How the values were obtained:
[1] = tested on: G. lamblia WBC6 and CBG99 trophozoites; assay: Giardia lamblia trophozoite growth inhibition assay; assay type: cell-based; details: 72 h
Experimental: Compound inhibition assay against Giardia lamblia WBC6 and CBG99 trophozoites: Biological replicates of growth inhibition assays were performed using wild-type G. lamblia WBC6 and G. lamblia CBG99 trophozoites at 37 °C under reduced oxygen conditions in a sealed 0.5 mL airtight sterile tube (USA Scientific, Ocala, FL, USA), following the susceptibility assay described below. G. lamblia trophozoites were grown in TYI-S-33 medium supplemented with 10% bovine serum and 0.05 mg/mL bovine bile, as previously described. A 3-fold serial concentration of pure compounds starting at 29 µM was screened against 75,000 cells/mL of parasites in modified TYI-S-33 medium with a final dimethyl sulfoxide (DMSO) concentration of 0.14%. Metronidazole was run in parallel at a final highest concentration of 66.7 µM and 3-fold subsequent serial dilutions. The untreated negative control contained 0.14% of DMSO. Sealable test tubes filled to its maximum volume of 700 µL were used to perform this assay. The test tubes were incubated at 37 °C for 72 h. After incubation, the tubes were chilled on ice, and the reaction was transferred to 96-well plates. In the plate, 50 µL of an ATP binding luminescence marker, CellTiter-Glo (Promega, Madison, WI, USA) or 10 µL of 2.5 mg/mL d-luciferin (GoldBio, St Louis, MO, USA) was added to each well and allowed to develop at room temperature for 10 min [31, 36]. The assay was read and analyzed using an EnVision Plate Reader (Perkin Elmer, Waltham, MA, USA). Response curves and EC50 values (the concentration at which 50% of G. lamblia trophozoite growth was inhibited) were calculated using GraphPad Prism (GraphPad, LaJolla, CA, USA).

[2] = tested on: P. falciparum 3D7; assay: Plasmodium falciparum growth inhibition assay (SYBR Green I), 3D7; details: 3D7, 72 h, read-out: EC50 3D7(M)
Experimental: (§2) Plasmodium falciparum growth inhibition assay: Antiplasmodial EC50 results were determined using a fluorescence-based SYBR Green I assay performed using asynchronous cultures [30, 35]. […] Plates were subsequently frozen at −80 °C to facilitate lysis. […] Relative fluorescence units (RFUs) were normalized based on chloroquine-treated and no treatment controls. Serial dilutions of compounds were prepared in RPMI with final assay conditions of ≤0.2% DMSO. Each assay was conducted in triplicate with three biological replicates.

[3] = tested on: C. parvum; assay: C. parvum growth inhibition assay (Cp-NLuc-infected HCT-8 cells); assay type: cell-based, Cryptosporidium parvum; details: for EC50: Cryptosporidium parvum
Experimental: C. parvum growth inhibition assays: The in vitro growth inhibition assay of C. parvum has been previously described. Briefly, clear-bottom, white-sided 96 well plates were seeded with HCT-8 cells. Once the cells reached between 50% and 75% confluency, they were infected with Cp-NLuc oocysts (10,000/well) in complete media containing 0.6% taurocholate. At 24 h post-infection (hpi), the infected cells were treated with compounds at various concentrations. DMSO was used as a vehicle control in parallel. Parasite growth was determined at 72 hpi by measuring relative luminescence units (RLUs) using Promega Nano-Glo substrate (Promega, Madison, WI, USA) and a SpectraMax® L Microplate Reader (Molecular Devices, San Jose, CA, USA). The percent inhibition of parasite growth was calculated as [(RLUDMSO − RLUcompound)/RLUDMSO] × 100.

[4] = tested on: HepG2 human hepatocytes; assay: HepG2 cytotoxicity assay (MTS); assay type: cell-based; details: 48 h, mean +/- SD
Experimental: HepG2 cytotoxicity assay: Mammalian cell cytotoxicity was assessed in HepG2 human hepatocytes using an MTS 3-(4,5-dimethylthiazol-2-yl)-5-(3-carboxymethoxyphenyl)-2-(4-sulfophenyl)-2H-tetrazolium)-based cytotoxicity assay. For cytotoxicity testing, ∼2250 cells were seeded into each well of a 384-well microtiter plate and incubated for 24 h. Serial dilutions of the compounds were added in triplicate starting at 25 μM. Cells were further incubated for an additional 48 h at 37 °C in an atmosphere containing 5% CO2. Zero-growth control wells were incubated with 5% Triton X-100 for 5 min prior to MTS addition. Following the addition of MTS to all wells, the plates were incubated for an additional 4 h under the same environmental conditions before taking absorbance measurements. Absorbance values were recorded at 490 nm using a Synergy Neo2 multimode reader (BioTek), and values were normalized based on Triton X-100-lysed and no treatment controls. Samples were run in triplicate in each assay, and the experiments were repeated three times.

[5] = tested on: HCT-8 cells; assay: HCT-8 cytotoxicity assay; assay type: cell-based
Experimental: (§1) HCT-8 and HFF cytotoxicity assays: Cytotoxicity of the compounds was determined against both confluent (the conditions of the infection assays) and growing HCT-8 and HFF host cells, as previously described. Cells were seeded into white-sided, clear-bottom 96-well plates and grown to either 40% or 100% confluency. Compounds were added to cells at various concentrations up to 100 µM in a final DMSO concentration of 0.5%. DMSO was run in parallel as a vehicle control. After 48 h, the viability of the cells was determined by either quantification of cellular ATP (Cell-Titer Glo cell viability assay; Promega, Madison WI, USA) or by MTT assay. Viability was determined 24 h after compound addition to HFF cells or 48 h after compound addition to HCT-8 cells or HepG2 cells. The percent cell growth was then calculated with the following formula: % Cell Growth = [RLUcompound/RLUDMSO] × 100. Samples were run in triplicate with two to three biological replicates.

[6] = HCT-8 cytotoxicity assay; assay type: cell-based; details: human; sub-confluent (~40% confluency); read-out: EC50 cytotoxicity against sub-confluent HCT-8 cells
Experimental: as §1

[7] = tested on: HFF cells; assay: HFF cytotoxicity assay; assay type: cell-based
Experimental: as §1

[8] = tested on: HuF fibroblast cell line; details: cited from earlier work
[9] = tested on: T. gondii; assay: T. gondii growth inhibition assay (TgRH-Luc:GFP-infected HFF cells); assay type: cell-based; details: Toxoplasma gondii, 10 µM to 156 nM, Figure 2E
Experimental: T. gondii growth inhibition assays: The T. gondii inhibition assay was described previously. Briefly, HFF cells were seeded onto white-sided, clear-bottom 96 well plates, grown to confluence, and then 5000 TgRH-Luc:GFP parasites were added to each well. At 24 hpi, compounds or DMSO were added. The growth of the parasites was determined by relative luminescence at 48 hpi using Promega Bright-Glo (Promega, Madison, WI, USA) substrate. Plates were read, and the percent inhibition of parasite growth was calculated as described above. Determination of -static versus -cidal activity was conducted as indicated above, with parasite growth quantified after 48 h of infection. Each sample was run in triplicate, and each experiment was repeated three times.

[10] = tested on: P. falciparum line Dd2; assay: Plasmodium falciparum growth inhibition assay (SYBR Green I), Dd2
Experimental: as §2

[11] = tested on: C. parvum sporozoites; assay: C. parvum invasion inhibition assay; assay type: cell-based, Cryptosporidium parvum; details: 100 nM, 3 h infection
Experimental: C. parvum excystation and invasion assays: Oocyst excystation rates in the presence of compounds were determined as previously described. The C. parvum invasion inhibition assays were conducted in two formats. In the first format, described previously, HCT-8 cells were seeded on glass slides (CELLTREAT Scientific Product, Pepperell, MA, USA) and allowed to grow to confluence. Oidiolactone A was added to the cells for one hour. TrtE and DMSO were run in parallel as positive and negative controls, respectively. The cell monolayers were then infected with 1.2 × 10^6 wild-type C. parvum oocysts. After 3 h of incubation at 37 °C, the slides were washed five times with 111 mM D-galactose, fixed with 4% paraformaldehyde, and permeabilized with 0.25% Triton-X. C. parvum sporozoites were detected with rabbit anti-gp40 [39] and Alexa Fluor 594 goat anti-rabbit antibodies. The HCT-8 cell nuclei were stained with 0.09 mM Hoechst. Slides were coded to enable unbiased counting, and sporozoites from at least 10 randomly selected fields were counted in each sample at 100× magnification (Zeiss® Axioscope 5). The percentage of invaded parasites was determined using the following equation: % Invaded parasites = [parasitescompound/parasitesDMSO] × 100. This experiment was run in duplicate with two biological replicates. […]

SMILES	activity against G. lamblia (no activity up to) [1] [µM]	EC50 [2] [M]	increase in inhibitory activity against C. parvum versus oidiolactone A ([3]; 7,8 double bond vs. 7α,8α-epoxy group) [fold]	EC50 ([3]; HCT-8, abstract, read-out: EC50 against C. parvum) [nM]	EC50 ([3]; Cp-NLuc-infected HCT-8 cells, 7.5 µM to 117 nM, Figure 2E, read-out: C. parvum EC50) [nM]	TC50 HepG2 [4] [µM]	TC50 HCT-8 (confluent) ([5]; confluent) [µM]	toxicity to host cells (no toxicity up to) ([5]; confluent HCT-8, conditions of the infection assay, 48 h, cellular ATP) [µM]	more cytotoxic towards host HCT-8 cells versus oidiolactone A ([5]; non-confluent conditions)	TC50 HCT-8 (sub-confluent) ([5]; sub-confluent) [µM]	EC50 at 48 h [6] [nM]	TC50 HFF (confluent) ([7]; confluent) [µM]	toxicity to host cells (no toxicity up to) ([7]; confluent HFF, conditions of the infection assay, 24 h, cellular ATP) [µM]	cytotoxicity against sub-confluent HFF ([7]; sub-confluent)	cytotoxicity against human fibroblast [8]	TC50 HuF (sub-confluent) ([8]; sub-confluent, ref Rusman et al. 2020 [25])	EC50 [9] [nM]	SI: selectivity index=EC50 HepG2/ EC50 compound [10]	EC50 ([10]; Plasmodium falciparum, DD2, 72 h, read-out: EC50 Dd2 (M)) [M]	effect on parasite invasion (positive control) [11]
CO[C@H]1OC(=O)C=C2C1=C[C@H]1OC(=O)[C@@]3(C)CCC[C@@]2(C)[C@@H]13 [compound 7, oidiolactone B]	> 29	1.22e-06 ± 4.19e-07	2	240	238	10.3 ± 2.19	> 30	> 100	~ 15 x	2.1 ± 0.3	2100	> 30	> 100	no cytotoxicity observed	no cytotoxicity observed	21.4 ± .9 µM	580	11	9.83e-07 ± 1.11e-07	
C[C@@H]1CCC2CC(=O)C[C@@H](O)CC/C=C/C=C\CC[C@H](C)OC(=O)[C@@H]3O[B-]45O[C@@H](C(=O)O[C@@H](C)CC/C=C\C=C\CC[C@H](O)CC(=O)CC6CC[C@@H](C)[C@]3(O6)O4)[C@@]1(O2)O5 [tartrolon E, reference compound]																				completely inhibited parasite invasion
